Among the data in patent US11779628B2, “Use of cell-permeable peptide inhibitors of the JNK signal transduction pathway for the treatment of various diseases” (Xigen Inflammation Ltd., priority 2014, dated 2023) are body weight and incorporation into macrophages values, retold here.

Data set [1] has as its system Hep G2 human hepatocarcinoma tumor. In words: Orthotopic HEP G2 human liver carcinoma, dose/response. In kind it is in vivo, mice. To be noted: 0.1, 1, 5 mg/kg/inj IV, Q4Dx4. The method, then: The objective of this study was to determine the antitumor activity of XG-102 (dose/response) in the model of SWISS Nude mice bearing the orthotopic Hep G2 human hepatocarcinoma tumor.
For XG-102 administration XG-102 was prepared at the concentration of 1 mg/ml with sterile water (WFI, Aguettant, France). Lt was then cliluted at the concentrations of 0.2 and 0.02 mg/ml with sterile water. All these steps were performed within one hour prior to injection to mice. XG-102 was injected at 0.1, 1 and 5 mg/kg/inj. Four injections were performed, each separated by four days (Q4Dx4).
Twenty four hours before tumor induction, 32 female SWISS Nude mice were irradiated with a γ-source (2.5 Gy, Co^60, INRA, Dijon, France). […]
Mice were monitored every day throughout the study for behaviour and survival. The body weight was monitored twice a week for all mice throughout the study. […]
At D67, 3 mice randomly selected per group during randomization were sacrificed for observation of macroscopic development. […] Histological sections were analyzed by a pathologist expert to determine the metastatic invasion in liver.
For the body weight analysis body weight curves of mice were drawn. Mean body weight change (MBWC): Average weight change of treated animals in grams (weight at day X minus weight at D10) was calculated.
Efficacy parameters were expressed as a percent (T/C %). […]

The subject of data set [2] is Primary cultured macrophages. In kind it is cell-based. The method, then:
FIG. 24 Primary cultured macrophages were incubated with XG-102 (SEQ ID NO: 11) and extensively washed.

On to `CC(C)C[C@@H](NC(=O)[C@@H](Cc1ccccc1)NC(=O)[C@H]1CCCN1C(=O)[C@@H](CCC(N)=O)NC(=O)[C@H](NC(=O)[C@H]1CCCN1C(=O)[C@@H](CCCNC(=N)N)NC(=O)[C@@H](CO)NC(=O)[C@@H](CCC(N)=O)NC(=O)[C@H](N)CC(=O)O)C(C)C)C(=O)N[C@H](CC(N)=O)C(=O)N[C@H](CC(C)C)C(=O)N[C@@H](C(=O)N[C@@H](C(=O)N1CCC[C@@H]1C(=O)N[C@H](CCCNC(=N)N)C(=O)N[C@H](CCCCN)C(=O)N1CCC[C@@H]1C(=O)N[C@H](CCCNC(=N)N)C(=O)N1CCC[C@@H]1C(=O)N1CCC[C@@H]1C(=O)N[C@H](CCCNC(=N)N)C(=O)N[C@H](CCCNC(=N)N)C(=O)N[C@H](CCCNC(=N)N)C(=O)N[C@H](CCC(N)=O)C(=O)N[C@H](CCCNC(=N)N)C(=O)N[C@H](CCCNC(=N)N)C(=O)N[C@H](CCCCN)C(=O)N[C@H](CCCCN)C(=O)N[C@H](CCCNC(=N)N)C(=O)NCC(=O)O)[C@H](C)O)[C@H](C)O` [XG-102], for which, in data set [1], the body weight entry was “no apparent differences occurred for the body weight”. Further, the incorporation into macrophages entry in data set [2] is recorded as “is strongly incorporated into primary macrophages”.
